Experimental findings from patent US20160318856A1, “Substituted Urea eIF2alpha Kinase Activators” (THE BRIGHAM AND WOMEN'S HOSPITAL, INC., priority 2013, published 2016) are described below.

What all share (assay type): cell-based
One assay deals with RAMOS. Nature of the assay: cell proliferation assay, RAMOS. Particulars: Homo sapiens, Lymphoma. The protocol: (§1) Cells were seeded in 96-well plates and maintained for 5 days in the presence of 0.5 to 20 μM of individual compound, and cell proliferation was measured by the sulforhodamine B (SRB) assay as described previously (see, for example, Palakurthi, S. S. et al. Cancer Research 2000, 60(11), 2919-2925). Briefly, at the end of a 5-day treatment, cells were fixed in 10% cold trichloroacetic acid. Cell number was estimated by measuring the remaining bound dye of sulforhodamine B after washing. The percentage of growth was calculated by using the equation: 100×[(T−T0)/(C−T0)], where T and C represent the absorbance in treated and control cultures at Day 5, and T0 at time zero, respectively. If T is less than T0, cell death has occurred and can be calculated from 100×[(T−T0)/T0].

A further assay concerns A-549. As to the kind of experiment: cell proliferation assay, A-549. Particulars: Homo sapiens, A549; A-549, Lung. The protocol:
as §1

A further assay has as its system HEP B3. As to the kind of experiment: cell proliferation assay, HEP B3. Particulars: HEP B3, Liver. The protocol:
as §1

In the next assay the test system is Huh-7. As to the kind of experiment: cell proliferation assay, Huh-7. Particulars: Homo sapiens; Huh-7, Liver. The protocol:
as §1

Assay [1] deals with CRL-2813 human melanoma cancer cells transfected with HRI-targeting or non-targeting siRNA. Nature of the assay: cell proliferation (SRB) assay after HRI knockdown. As to conditions: CRL-2813 cells, FIG. 10. As to the method: as §1
Cell proliferation is a meaningful read-out for determining the specificity of a compound as it captures both on-target and off-target effects of the compound under study. […] If these compounds specifically activate HRI and this activity is required for the inhibition of cell proliferation, then reducing the expression of HRI should blunt their effect on cell proliferation. For this purpose, expression of HRI was knocked down in CRL-2813 human melanoma (about 70% knockdown efficiency) and MCF-7 human breast cancer cells (about 90% knockdown efficiency). These two cell lines were chosen because the HRI knockdown efficiency is lower in CRL-2813 than in MCF-7 cells providing a sort of dose-response data that correlates knockdown efficiency with the resistance of cells to inhibition of cell proliferation. […] Referring to FIG. 5A, CRL-2813 human melanoma cancer cells, and (FIG. 5B) MCF-7 human breast cancer cells were transfected with HRI targeted or non-targeted siRNA, treated with the indicated concentrations of I-6p and cell proliferation was measured by SRB assay. Calculated IC50 for all four compounds tested in CRL-2813 human melanoma cancer cells and MCF-7 human breast cancer cells transfected with non-target siRNA control (NTC) or HRI is shown in FIG. 5C and FIG. 5D, respectively. The experiment was conducted in triplicate and each experiment was independently performed three times. Data are shown as Mean±S.E.M. *NTC=non-target siRNA control.
Referring to FIG. 8, CRL-2813 human melanoma cancer cells were transfected with HRI targeted or non-targeted siRNA, treated with the indicated concentrations of (A) I-14, (B) I-15, (C) III-4 and (D) III-5 and cell proliferation was measured by SRB assay. Calculated IC50 for all four compounds tested in CRL-2813 human melanoma cancer cells transfected with non-target siRNA control (NTC) or HRI is shown in (E). The experiment was conducted in triplicate and each experiment was independently performed three times. Data are shown as Mean±S.E.M. *NTC=non-target siRNA control, IC50=effective dose of drug that inhibit cell proliferation by 50%.
In general, if the affinity of compounds for their molecular target is increased this should result in higher specificity of the compounds in the cell proliferation assay. […] These five compounds, two with average and three with high potency, were tested in cell proliferation assay using CRL-2813 cells transfected with non-targeted siRNA or HRI-targeted siRNA as described above.

The subject of another assay is ASPC-1. As to the kind of experiment: cell proliferation assay, ASPC-1. As to conditions: Homo sapiens, ASPC1; ASPC-1, Pancreas; read-out: IC50. The protocol:
as §1
The compounds shown in Table 7 were evaluated using for activation of HRI using the dual luciferase surrogate eIF2α phosphorylation assay (see, for example, Chen, T. et al. Nature Chem Biol 2011, 7, 610-616) and for inhibition of cell proliferation using the SRB assay (see, for example, Palakurthi, S. S. et al. Cancer Res 2000, 60, 2919-2925) as described above.

For the molecule `O=C(Nc1cccc(C(F)(F)F)c1)NC1CCC(Oc2ccc(OC(F)(F)F)cc2)CC1` (stereo not drawn) [Compound I-17, 1-(4-(4-(trifluoromethoxy)phenoxy)cyclohexyl)-3-(3-(trifluoromethyl)phenyl)urea], the IC50 (commonly the concentration at which inhibition is half-maximal) with RAMOS turned out to be 800 nM; in the assay with A-549, 900 nM; in the assay with HEP B3 it was 1800 nM; in the assay on Huh-7, 2100 nM; in the assay on ASPC-1, 2400 nM. Moreover, the “fold higher IC50 values in cells transfected with HRI-targeting siRNA vs. non-targeting siRNA” value in assay [1] is recorded as approximately 6 fold.
